In the SangsterLogP compilation:

Legend:
[1] = pH 7.4
[2] = from Courrière, P.; Paubel, J.P.; Nivière, P.; Foussard-Blaspin, O. (1978). Structure-activity study in a series of local anesthetic agents. I. Physicochemical properties and molecular orbital study. …
[3] = method code SF-HPLC, from DOI: 10.1016/s0969-8043(00)00269-4, PMID: 11200881; details: pH 7.4
[4] = not given; remark: listed apart in the source
[5] = not given; remark: listed apart in the source
[6] = method code SF-ESR, from DOI: 10.1515/znc-1987-7-832, PMID: 2961152
[7] = method code SF-HPLC, from DOI: 10.3109/14756366.2013.845817, PMID: 24156741
[8] = not given; remark: listed apart in the source
[9] = not given; remark: listed apart in the source
[10] = method code SF-AS, from DOI: 10.1021/jm9807104, PMID: 10514282; details: pH 7.0
[11] = method code SF-AS, from DOI: 10.1021/jf970979g, PMID: 10554305
[12] = method code SF-AS, from DOI: 10.1002/jps.2600830406, PMID: 7913964
[13] = method code SF-AS, from DOI: 10.1016/s0021-9673(01)89522-4
[14] = not given; remark: listed apart in the source
[15] = method code SF-HPLC, from DOI: 10.2174/1871523013666141114203105, PMID: 25403255; details: pH 7.4
[16] = method code SF-HPLC, from DOI: 10.1016/0378-5173(89)90313-x; details: pH 7.4
[17] = method code SF-RC/EN, from DOI: 10.1016/s0022-2275(20)42614-8, PMID: 2280184; details: pH 1.0
[18] = method code SF-HPLC, from DOI: 10.1016/j.bmc.2009.01.040, PMID: 19208447; details: pH 7.0
[19] = method code SF, from DOI: 10.1016/j.bmcl.2009.04.053, PMID: 19409782
[20] = method code SF-RC/EIA, from DOI: 10.1016/s0022-2275(20)42614-8, PMID: 2280184; details: pH 1.0
[21] = method code SF-RC, from DOI: 10.1016/j.nucmedbio.2016.03.005, PMID: 27179748; details: pH 7.4
[22] = not given; remark: listed apart in the source
[23] = method code SF-HPLC, from DOI: 10.1023/a:1011018730459, PMID: 11451042
[24] = method code SF-GLC, from DOI: 10.1023/a:1015803202857, PMID: 2395795
[25] = method code SF-RC, from DOI: 10.1016/j.nucmedbio.2016.05.003, PMID: 27236283; details: pH 7.4
[26] = method code SF-AS, from DOI: 10.1248/cpb.45.1287, PMID: 9301027

O=C(C=Cc1cc([N+](=O)[O-])cc2c1OCO2)N1CCC2(CC1)C(=O)NCN2c1ccccc1
logD [1]: 3.1

Cc1cccc(C)c1N(CCCN(C)C)C(=O)Cc1ccccc1
logP [2]: 4.9

C[C@H](CN1CCOCC1)C(C(=O)N1CCCC1)(c1ccccc1)c1ccccc1
logP: 3.61

COc1ccccc1N1CCN(CCN(C(=O)C2CCCCC2)c2ccccn2)CC1
logD [3]: 3.1

CCCCCCCC(=O)OC(CNC(C)(C)C)COc1nsnc1N1CCOCC1 (configuration not stated)
logP [4]: 4.66

CCOC(=O)C1=C(C)NC(C)=C(C(=O)OCC)C1c1ccccc1/C=C/C(=O)OC(C)(C)C
logP [5]: 4.43

CC1(C)CC(N(CCN(C(=O)N(CCCl)N=O)C2CC(C)(C)N(O)C(C)(C)C2)C(=O)N(CCCl)N=O)CC(C)(C)N1O
logP [6]: 2.35

C#CCn1cc(C(=O)NC(c2ccccc2)C(O)C(=O)Nc2ccccc2)c(=O)c2cc(F)c(Cl)nc21 (configuration not stated)
logP [7]: 5.55

COc1ccc2c(c1)c(CC(=O)C1c3cccc(O)c3C(=O)c3c(O)cccc31)c(C)n2C(=O)c1ccc(Cl)cc1
logP [8]: 5.17

COC(=O)C1=C(C)NC(C)=C(C(=O)OCCN2CCN(C(c3ccccc3)c3ccccc3)CC2)C1c1cccc([N+](=O)[O-])c1 (configuration not stated)
logP [5]: 5.2

O=C1C2C3CCC(CC3)C2C(=O)N1CCCCN1CCN(c2ccc3ccccc3n2)CC1 (configuration not stated)
logP [9]: 4.1

COC(=O)C(C)NP(=O)(OCC1C=CC(n2cc(C)c(=O)[nH]c2=O)O1)Oc1ccc(OC(C)=O)cc1 (configuration not stated)
logD [10]: 1.01

CC(NC1=CC(=O)C(NC(C)c2ccccc2)=CC1=O)c1ccccc1 (configuration not stated)
logP [11]: 0.98

COC(=O)[C@@H]1C[C@H]2[C@@H]3CCC4=CC(=O)C=C[C@]4(C)[C@@]3(F)[C@@H](O)C[C@]2(C)[C@H]1C(=O)CO
logP [12]: 1.78

CC12CCC(O)CC1CCC1C2CCC2(C)C(C3=CC(=O)OC3)C(O)CC12O (configuration not stated)
logP [13]: 1.76

CC12CCC(O)CC1CCC1C2CCC2(C)C(C3=CC(=O)OC3)CCC12O (configuration not stated)
logP [13]: 2.64

CCC1C[C@H]2[C@@H]3CCC4=CC(=O)CC[C@@H]4[C@H]3CC[C@]2(C)[C@H]1C(=O)CF (some centres not stated)
logP [14]: 4.41

CC1CCC(C(C)C)C(OC(=O)COC(=O)Cc2ccccc2Nc2c(Cl)cccc2Cl)C1 (configuration not stated)
logD [15]: 5.07

CN1C=CCC(C(=O)NCC(OC(=O)CCCc2ccc(N(CCCl)CCCl)cc2)c2ccccc2)=C1 (configuration not stated)
logD [16]: 2.29

C[C@H](CCC(=O)O)C1CCC2C3C(CC[C@@]21C)[C@@]1(C)CC[C@@H](O)CC1C[C@H]3O (some centres not stated)
logD [17]: 3.28

CC(C(=O)OCC(O)C(OC1OC(CO)C(O)C(O)C1O)C(O)C(O)C=O)c1cccc(C(=O)c2ccccc2)c1 (configuration not stated)
logD [18]: -0.13

O=[N+]([O-])N=C1N(Cc2ccc(Cl)nc2)CCN1Cc1ccc2c(c1)OCCOCCOCCOCCOCCO2
logP [19]: -0.55

C[C@H](CCC(=O)NCC(=O)O)[C@H]1CC[C@H]2[C@@H]3[C@H](O)C[C@@H]4C[C@H](O)CC[C@]4(C)[C@H]3CC[C@]12C
logD [20]: 2.12

COc1ccc(S(=O)(=O)N(Cc2ccc(OCCOCCOCCOCCOCc3cn(CCF)nn3)cc2)[C@@H](C(=O)NO)C(C)C)cc1
logD [21]: 1.24

C[C@H](CCC(=O)O)[C@H]1CC[C@H]2[C@@H]3[C@H](O)C[C@@H]4C[C@H](O)CC[C@]4(C)[C@H]3C[C@H](O)[C@]12C
logD [17]: 2.02

C#C[C@]1(O)CC[C@H]2[C@@H]3CCc4cc(O)ccc4[C@H]3[C@@H](CC)C[C@@]21C
logP [22]: 4.28

CC(NC1=CC(=O)C(NC(C)C(O)c2ccccc2)=CC1=O)C(O)c1ccccc1 (configuration not stated)
logP [11]: 1.42

COc1ccc(S(=O)(=O)N(Cc2cn(CCOCCOCCOCCF)nn2)C(C(=O)NO)C(C)C)cc1 (configuration not stated)
logD [21]: 0.23

C#C[C@@]1(O)[C@@H](F)C[C@H]2[C@@H]3CCc4cc(O)ccc4[C@H]3[C@@H](CC)C[C@@]21C
logP [22]: 4.12

COc1cc(C(=O)OCC2OC(n3cnc4c(NC5CCCC5)ncnc43)C(O)C2O)cc(OC)c1OC (configuration not stated)
logP [23]: 2.27

COC(=O)C(C)NP(=O)(Oc1ccc(C)cc1)OC1C=CC(n2cc(C)c(=O)[nH]c2=O)O1 (configuration not stated)
logD [10]: 1.19

Cc1ccc(C(C)C)c(OC(=O)COC(=O)Cc2ccccc2Nc2c(Cl)cccc2Cl)c1
logD [15]: 5.08

CCC1C[C@H]2[C@@H]3CCC4=CC(=O)CC[C@@H]4[C@H]3CC[C@]2(C)C1C(=O)CO (some centres not stated)
logP [14]: 4.21

C[C@H](CCC(=O)NCC(=O)O)[C@H]1CC[C@H]2[C@@H]3[C@H](O)C[C@@H]4C[C@H](O)CC[C@]4(C)[C@H]3C[C@H](O)[C@]12C
logD [20]: 1.65

COc1cc([N+](=O)[O-])cc(C=CC(=O)N2CCC(n3c(=O)[nH]c4ccccc43)CC2)c1OC
logD [1]: 3

CNc1cccc(NC(=O)N[C@@H]2N=C(c3ccccn3)c3ccccc3N(CC(=O)C(C)(C)C)C2=O)c1
logD [3]: 2.68

C#CCn1cc(C(=O)NC(C(=O)NC2CCCC2)c2ccccc2)c(=O)c2cc(F)c(Cl)nc21 (configuration not stated)
logP [7]: 6.22

OC(CCN1CCCCC1)(c1ccccc1)C1CC2C=CC1C2 (configuration not stated)
logP [24]: 4.25

O=C(c1ccccc1)c1cccc(C(O)C(=O)OCC2OC(OC3OC(CO)C(O)C(O)C3O)C(O)C(O)C2O)c1 (configuration not stated)
logD [18]: -0.25

COc1cc(NCCCF)cc(OC)c1NC(=O)c1ccc(Cc2cc3c(cc2C)CCCC3(C)C)o1
logD [25]: 1.43

Cc1cccc(C)c1N(CCCN(C)C)C(=O)/C=C/c1ccccc1
logP [2]: 5.27

CC(C)(C)NCC(COc1nsnc1N1CCOCC1)OC(=O)c1ccccc1COC(=O)c1ccccc1 (configuration not stated)
logP [4]: 4.37

COC(=O)[C@@H]1C[C@H]2[C@@H]3CCC4=CC(=O)C=C[C@]4(C)[C@H]3[C@@H](O)C[C@]2(C)[C@H]1C(=O)CO
logP [12]: 1.7

O=[N+]([O-])N=C1N(Cc2ccc(Cl)nc2)CCN1Cc1ccc2c(c1)OCCOCCOCCOCCO2
logP [19]: -0.82

CCOCCn1c(N2CCCN(CCCCn3cccn3)CC2)nc2ccccc21
logP [26]: 3.99

CN1C=CCC(C(=O)NCCCOC(=O)CCCc2ccc(N(CCCl)CCCl)cc2)=C1
logD [16]: 2.75

CCOCCn1c(CN2CCCN(CCCCn3cccn3)CC2)nc2ccccc21
logP [26]: 4.61

COc1cc(OCCF)cc(OC)c1NC(=O)c1ccc(Cc2cc3c(cc2C)CCCC3(C)C)o1
logD [25]: 1.85

O=C1CC2(CCCC2)CC(=O)N1CCCCN1CCN(c2ccc3ccccc3n2)CC1
logP [9]: 4.23

CCCCCCCC(=O)OCC1OC(n2cnc3c(NC4CCCC4)ncnc32)C(O)C1O (configuration not stated)
logP [23]: 3.91

CCOC(=O)C1(c2ccccc2)CCN(CCC(O)c2ccccc2)CC1 (configuration not stated)
logP: 4.04

CC1(C)CC(N(C(=O)N(CCCl)N=O)C2CC(C)(C)N(O)C(C)(C)C2)CC(C)(C)N1O
logP [6]: 1.63
